# ChEMBL document CHEMBL4613325, “Design of Development Candidate eFT226, a First in Class Inhibitor of Eukaryotic Initiation Factor 4A RNA Helicase” (J Med Chem, 2020)
# Legend:
# MDA-MB-231 = assay: Antiproliferative activity against human MDA-MB-231 cells assessed as reduction in cell proliferation incubated for 72 hrs by CellTiter-Glo reagent based assay; type: functional; conditions: MDA-MB-231, 72 h
# [1] = Apparent permeability from apical to basolateral side in human Caco2 cells at 10 uM by LC/MS/MS analysis
# [2] = Stability in rat liver microsomes assessed as parent compound remaining at 1 uM pre-incubated for 10 mins before NADPH addition and measured after 30 mins by LC/MS/MS analysis; type: ADME, Microsome; conditions: read-out: Stability
# [3] = Efflux ratio in human Caco2 cells at 10 uM by LC/MS/MS analysis
# hERG (KCNH2) = hERG (KCNH2) (Homo sapiens, UniProt Q12809); assay: Inhibition of human ERG at 10 uM by patch-clamp assay relative to control
# [4] = Stability in human liver microsomes assessed as parent compound remaining at 1 uM pre-incubated for 10 mins before NADPH addition and measured after 30 mins by LC/MS/MS analysis; type: ADME, Microsome; conditions: read-out: Stability
# Chain of hERG (KCNH2) (Q12809 whole entry): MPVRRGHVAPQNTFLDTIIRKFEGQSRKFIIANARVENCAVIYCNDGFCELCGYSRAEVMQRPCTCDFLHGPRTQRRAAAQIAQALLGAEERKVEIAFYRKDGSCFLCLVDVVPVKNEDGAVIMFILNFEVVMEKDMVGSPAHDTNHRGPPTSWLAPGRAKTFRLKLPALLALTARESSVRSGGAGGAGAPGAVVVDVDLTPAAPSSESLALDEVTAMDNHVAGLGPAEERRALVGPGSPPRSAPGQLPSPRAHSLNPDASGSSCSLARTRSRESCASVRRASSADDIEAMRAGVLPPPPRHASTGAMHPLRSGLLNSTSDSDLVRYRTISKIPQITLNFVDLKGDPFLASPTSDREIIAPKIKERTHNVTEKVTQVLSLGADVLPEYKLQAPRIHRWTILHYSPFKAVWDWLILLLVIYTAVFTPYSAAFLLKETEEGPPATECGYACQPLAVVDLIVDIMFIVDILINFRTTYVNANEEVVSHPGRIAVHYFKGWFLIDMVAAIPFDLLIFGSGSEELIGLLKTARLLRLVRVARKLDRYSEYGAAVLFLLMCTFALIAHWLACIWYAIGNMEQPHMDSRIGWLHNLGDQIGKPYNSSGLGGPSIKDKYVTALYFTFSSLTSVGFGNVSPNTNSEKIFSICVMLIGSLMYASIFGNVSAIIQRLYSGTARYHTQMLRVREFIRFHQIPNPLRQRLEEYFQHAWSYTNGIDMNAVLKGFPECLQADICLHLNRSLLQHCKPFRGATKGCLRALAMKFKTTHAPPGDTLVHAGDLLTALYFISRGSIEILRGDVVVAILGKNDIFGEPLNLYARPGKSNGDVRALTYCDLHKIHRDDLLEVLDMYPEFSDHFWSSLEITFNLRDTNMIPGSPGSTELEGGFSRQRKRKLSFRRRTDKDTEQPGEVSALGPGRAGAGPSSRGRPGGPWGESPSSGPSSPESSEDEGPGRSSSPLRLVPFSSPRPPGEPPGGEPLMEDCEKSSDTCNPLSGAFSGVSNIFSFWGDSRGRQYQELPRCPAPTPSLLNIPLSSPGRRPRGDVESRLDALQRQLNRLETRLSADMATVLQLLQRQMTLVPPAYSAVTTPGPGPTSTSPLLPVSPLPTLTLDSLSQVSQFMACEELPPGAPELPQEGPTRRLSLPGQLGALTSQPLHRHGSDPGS
smiles,measurement,setting,value
COc1cnc2c(c1)O[C@@]1(c3ccc(C#N)cc3)[C@H](c3ccccc3)[C@@H](C(=O)N(C)C)[C@@H](O)[C@@]21O,IC50,MDA-MB-231,159 nM
COc1ccc([C@@]23Oc4cc(OC)cnc4[C@]2(O)[C@H](O)[C@H](C(=O)N(C)C)[C@H]3c2ccccc2)cc1 (racemic),IC50,MDA-MB-231,990 nM
N#Cc1ccc([C@@]23Oc4cc(Cl)cnc4[C@]2(O)[C@H](O)[C@H](CO)[C@H]3c2ccccc2)cc1 (racemic),IC50,MDA-MB-231,1460 nM
COc1cncc2c1[C@]1(O)[C@H](O)[C@H](CN)[C@@H](c3ccccc3)[C@]1(c1ccc(C#N)cc1)O2 (racemic),Papp A→B at 10 µM,[1]; Caco-2,0.11 ×10⁻⁶ cm/s
same,"remaining at 0.5 h, 1 µM",[2],104%
same,efflux ratio at 10 µM,[3]; Caco-2,4
same,inhibition at 10 µM,hERG (KCNH2),11%
same,"remaining at 0.5 h, 1 µM",[4],106%
same,IC50,MDA-MB-231,211 nM
CN(C)C(=O)[C@H]1[C@@H](O)[C@@]2(O)c3ncc(Cl)cc3O[C@@]2(c2ccc(Cl)cc2)[C@@H]1c1ccccc1,IC50,MDA-MB-231,160 nM
COc1ccc([C@@]23Oc4cc(C#N)cnc4[C@]2(O)[C@H](O)[C@H](C(=O)N(C)C)[C@H]3c2ccccc2)cc1,IC50,MDA-MB-231,601 nM
COc1ccc2c(c1)O[C@@]1(c3ccc(C#N)cc3)[C@H](c3ccccc3)[C@@H](C(=O)N(C)C)[C@@H](O)[C@@]21O (racemic),IC50,MDA-MB-231,68 nM
COc1cncc2c1[C@]1(O)[C@H](O)[C@H](CN3CC(F)(F)C3)[C@@H](c3ccccc3)[C@]1(c1ccc(C#N)cc1)O2,Papp A→B at 10 µM,[1]; Caco-2,1.9 ×10⁻⁶ cm/s
same,efflux ratio at 10 µM,[3]; Caco-2,5.7
same,inhibition at 10 µM,hERG (KCNH2),< 10%
same,IC50,MDA-MB-231,208 nM
CN(C)C(=O)[C@H]1[C@@H](O)[C@@]2(O)c3cnc(C#N)cc3O[C@@]2(c2ccc(C#N)cc2)[C@@H]1c1ccccc1,IC50,MDA-MB-231,308 nM
CN(C)C(=O)[C@H]1[C@@H](O)[C@@]2(O)c3ncc(Cl)cc3O[C@@]2(c2ccc(F)cc2)[C@@H]1c1ccccc1,IC50,MDA-MB-231,> 1000 nM
COc1ccc([C@@]23Oc4cc(C#N)ccc4[C@]2(O)[C@H](O)[C@H](C(=O)N(C)C)[C@H]3c2ccccc2)cc1 (racemic),IC50,MDA-MB-231,38 nM
COc1cncc2c1[C@]1(O)[C@H](O)[C@H](CNC(C)(C)C)[C@@H](c3ccccc3)[C@]1(c1ccc(C#N)cc1)O2,"remaining at 0.5 h, 1 µM",[2],92%
same,inhibition at 10 µM,hERG (KCNH2),< 10%
same,"remaining at 0.5 h, 1 µM",[4],99%
same,IC50,MDA-MB-231,301 nM
CN(C)C[C@H]1[C@@H](O)[C@@]2(O)c3ncc(Cl)cc3O[C@@]2(c2ccc(C#N)cc2)[C@@H]1c1ccccc1,IC50,MDA-MB-231,239 nM
N#Cc1ccc([C@@]23Oc4cc(Cl)cnc4[C@]2(O)[C@H](O)[C@H](c2ncco2)[C@H]3c2ccccc2)cc1 (racemic),IC50,MDA-MB-231,236 nM
COc1cncc2c1[C@]1(O)[C@H](O)[C@H](CN3[C@@H]4CC[C@H]3COC4)[C@@H](c3ccccc3)[C@]1(c1ccc(C#N)cc1)O2,Papp A→B at 10 µM,[1]; Caco-2,1.9 ×10⁻⁶ cm/s
same,"remaining at 0.5 h, 1 µM",[2],51%
same,efflux ratio at 10 µM,[3]; Caco-2,5.3
same,"remaining at 0.5 h, 1 µM",[4],51%
same,IC50,MDA-MB-231,101 nM
CN(C)C(=O)[C@H]1[C@@H](O)[C@@]2(O)c3ncc(C#N)cc3O[C@@]2(c2ccc(C#N)cc2)[C@@H]1c1ccccc1,IC50,MDA-MB-231,385 nM
COc1ccc([C@@]23Oc4cc(OC)cc(OC)c4[C@]2(O)[C@H](O)[C@H](C(=O)N(C)C)[C@H]3c2ccccc2)cc1 [ROCAGLAMIDE],IC50,MDA-MB-231,20 nM
COc1cncc2c1[C@]1(O)[C@H](O)[C@H](CN3CCC(F)(F)CC3)[C@@H](c3ccccc3)[C@]1(c1ccc(C#N)cc1)O2,Papp A→B at 10 µM,[1]; Caco-2,4.8 ×10⁻⁶ cm/s
same,"remaining at 0.5 h, 1 µM",[2],42%
same,efflux ratio at 10 µM,[3]; Caco-2,1.7
same,inhibition at 10 µM,hERG (KCNH2),30%
same,"remaining at 0.5 h, 1 µM",[4],45%
same,IC50,MDA-MB-231,158 nM
CN(C)C(=O)[C@H]1[C@@H](O)[C@@]2(O)c3ccc(Cl)cc3O[C@@]2(c2ccc(C#N)cc2)[C@@H]1c1ccccc1 (racemic),IC50,MDA-MB-231,19 nM
COc1cncc2c1[C@]1(O)[C@H](O)[C@H](CN(C)CC(F)(F)F)[C@@H](c3ccccc3)[C@]1(c1ccc(C#N)cc1)O2,Papp A→B at 10 µM,[1]; Caco-2,7.1 ×10⁻⁶ cm/s
same,"remaining at 0.5 h, 1 µM",[2],< 1%
same,efflux ratio at 10 µM,[3]; Caco-2,1.3
same,"remaining at 0.5 h, 1 µM",[4],< 1%
same,IC50,MDA-MB-231,196 nM
COc1cncc2c1[C@]1(O)[C@H](O)[C@H](CN3CCOCC3)[C@@H](c3ccccc3)[C@]1(c1ccc(C#N)cc1)O2,Papp A→B at 10 µM,"[1]; Caco-2, Papp",1.5 ×10⁻⁶ cm/s
same,"remaining at 0.5 h, 1 µM",[2],52%
same,efflux ratio at 10 µM,"[3]; Caco-2, Ratio",5.3
same,inhibition at 10 µM,hERG (KCNH2),< 10%
same,"remaining at 0.5 h, 1 µM",[4],40%
same,IC50,MDA-MB-231,121 nM
COc1cncc2c1[C@]1(O)[C@H](O)[C@H](CN3[C@@H]4CCC[C@H]3CC4)[C@@H](c3ccccc3)[C@]1(c1ccc(C#N)cc1)O2,Papp A→B at 10 µM,[1]; Caco-2,0.5 ×10⁻⁶ cm/s
same,"remaining at 0.5 h, 1 µM",[2],68%
same,efflux ratio at 10 µM,[3]; Caco-2,35
same,"remaining at 0.5 h, 1 µM",[4],62%
same,IC50,MDA-MB-231,143 nM
CNC(=O)[C@H]1[C@@H](O)[C@@]2(O)c3ncc(Cl)cc3O[C@@]2(c2ccc(C#N)cc2)[C@@H]1c1ccccc1,Papp A→B at 10 µM,"[1]; Caco-2, Papp",0.5 ×10⁻⁶ cm/s
same,IC50,MDA-MB-231,32 nM
CN(C)C(=O)[C@H]1[C@@H](O)[C@@]2(O)c3ncc(Cl)cc3O[C@@]2(c2ccc(C#N)cc2)[C@@H]1c1ccccc1,Papp A→B at 10 µM,[1]; Caco-2,1.8 ×10⁻⁶ cm/s
same,IC50,MDA-MB-231,87 nM
N#Cc1ccc([C@@]23Oc4cc(Cl)cnc4[C@]2(O)[C@H](O)C[C@H]3c2ccccc2)cc1 (racemic),IC50,MDA-MB-231,670 nM
CNC[C@H]1[C@@H](O)[C@@]2(O)c3c(OC)cncc3O[C@@]2(c2ccc(C#N)cc2)[C@@H]1c1ccccc1 (racemic),Papp A→B at 10 µM,"[1]; Caco-2, Papp",0.3 ×10⁻⁶ cm/s
same,"remaining at 0.5 h, 1 µM",[2],90%
same,efflux ratio at 10 µM,"[3]; Caco-2, Ratio",3.9
same,inhibition at 10 µM,hERG (KCNH2),< 10%
same,"remaining at 0.5 h, 1 µM",[4],98%
same,IC50,MDA-MB-231,482 nM
COc1cncc2c1[C@]1(O)[C@H](O)[C@H](CN(C)C)[C@@H](c3ccccc3)[C@]1(c1ccc(C#N)cc1)O2 (stereo in doubt; (+)-37),Papp,"[1]; caco-2, 10 µM, 10 µM",0.2 ×10⁻⁶ cm/s
same,"remaining at 0.5 h, 1 µM",[2],72%
same,Ratio,"[3]; caco-2, 10 µM, 10 µM",23
same,inhibition at 10 µM,hERG (KCNH2),11%
same,"remaining at 0.5 h, 1 µM",[4],75%
COc1ccc([C@@]23Oc4cc(OC)ccc4[C@]2(O)[C@H](O)[C@H](C(=O)N(C)C)[C@H]3c2ccccc2)cc1 (racemic),IC50,MDA-MB-231,198 nM
N#Cc1ccc([C@@]23Oc4cc(Cl)cnc4[C@]2(O)[C@H](O)[C@H](C(N)=O)[C@H]3c2ccccc2)cc1,Papp A→B at 10 µM,[1]; Caco-2,0.5 ×10⁻⁶ cm/s
same,IC50,MDA-MB-231,90 nM
CS(=O)(=O)[C@H]1[C@@H](O)[C@@]2(O)c3ncc(Cl)cc3O[C@@]2(c2ccc(C#N)cc2)[C@@H]1c1ccccc1,IC50,MDA-MB-231,3020 nM
CN(C)S(=O)(=O)[C@H]1[C@@H](O)[C@@]2(O)c3ncc(Cl)cc3O[C@@]2(c2ccc(C#N)cc2)[C@@H]1c1ccccc1 (racemic),IC50,MDA-MB-231,304 nM
CN(C)C(=O)[C@H]1[C@@H](O)[C@@]2(O)c3ncc(Cl)cc3O[C@@]2(c2ccc(C(F)(F)F)cc2)[C@@H]1c1ccccc1,IC50,MDA-MB-231,320 nM
COc1nccc2c1[C@]1(O)[C@H](O)[C@H](C(=O)N(C)C)[C@@H](c3ccccc3)[C@]1(c1ccc(C#N)cc1)O2 (racemic),IC50,MDA-MB-231,314 nM
COc1ccc([C@@]23Oc4cc(Cl)cnc4[C@]2(O)[C@H](O)[C@H](C(=O)N(C)C)[C@H]3c2ccccc2)cc1,IC50,MDA-MB-231,283 nM
CN(C)C(=O)[C@H]1[C@@H](O)[C@@]2(O)c3ncc(Cl)cc3O[C@@]2(c2ccc(OC(F)(F)F)cc2)[C@@H]1c1ccccc1,IC50,MDA-MB-231,603 nM
COc1cncc2c1[C@]1(O)[C@H](O)[C@H](CN3CC4(COC4)C3)[C@@H](c3ccccc3)[C@]1(c1ccc(C#N)cc1)O2,Papp A→B at 10 µM,[1]; Caco-2,0.1 ×10⁻⁶ cm/s
same,"remaining at 0.5 h, 1 µM",[2],74%
same,efflux ratio at 10 µM,[3]; Caco-2,41
same,"remaining at 0.5 h, 1 µM",[4],81%
same,IC50,MDA-MB-231,124 nM
CN(C)C(=O)[C@H]1[C@@H](O)[C@@]2(O)c3ncc(Cl)cc3O[C@@]2(c2ccc(C(F)F)cc2)[C@@H]1c1ccccc1,IC50,MDA-MB-231,241 nM
COc1cncc2c1[C@]1(O)[C@H](O)[C@H](CN3CCCCC3)[C@@H](c3ccccc3)[C@]1(c1ccc(C#N)cc1)O2,"remaining at 0.5 h, 1 µM",[2],56%
same,"remaining at 0.5 h, 1 µM",[4],81%
same,IC50,MDA-MB-231,50 nM
CN(C)C(=O)[C@H]1[C@@H](O)[C@@]2(O)c3ccc(C#N)cc3O[C@@]2(c2ccc(C#N)cc2)[C@@H]1c1ccccc1 (racemic),IC50,MDA-MB-231,26 nM
COc1ccc2c(n1)O[C@@]1(c3ccc(C#N)cc3)[C@H](c3ccccc3)[C@@H](C(=O)N(C)C)[C@@H](O)[C@@]21O (racemic),IC50,MDA-MB-231,> 1000 nM
CN(C)C(=O)[C@H]1[C@@H](O)[C@@]2(O)c3ncc(Cl)cc3O[C@@]2(c2ccc(S(C)(=O)=O)cc2)[C@@H]1c1ccccc1,IC50,MDA-MB-231,> 1000 nM
COc1ccc([C@@]23Oc4cc(Cl)ccc4[C@]2(O)[C@H](O)[C@H](C(=O)N(C)C)[C@H]3c2ccccc2)cc1 (racemic),IC50,MDA-MB-231,52 nM
CNS(=O)(=O)[C@H]1[C@@H](O)[C@@]2(O)c3ncc(Cl)cc3O[C@@]2(c2ccc(C#N)cc2)[C@@H]1c1ccccc1 (racemic),IC50,MDA-MB-231,2040 nM
Cc1ccc([C@@]23Oc4cc(Cl)cnc4[C@]2(O)[C@H](O)[C@H](C(=O)N(C)C)[C@H]3c2ccccc2)cc1,IC50,MDA-MB-231,143 nM
